Laboratory results taken from ChEMBL document CHEMBL4177730, “Rational modification of semaxanib and sunitinib for developing a tumor growth inhibitor targeting ATP binding site of tyrosine kinase” (2018).
Activity calls are given as the source filed them.

Columns and labels:
Format in all cases: functional, cell-based
IGROV-1 = assay: Growth inhibition of human IGROV1 cells at 10 uM after 48 hrs by sulforhodamine B assay
NCI-H522 = assay: Growth inhibition of human NCI-H522 cells at 10 uM after 48 hrs by sulforhodamine B assay
SW-620 = assay: Growth inhibition of human SW620 cells at 10 uM after 48 hrs by sulforhodamine B assay
SF-539 = assay: Growth inhibition of human SF539 cells at 10 uM after 48 hrs by sulforhodamine B assay
MDA-MB-468 = assay: Growth inhibition of human MDA-MB-468 cells at 10 uM after 48 hrs by sulforhodamine B assay
OVCAR-8 = assay: Growth inhibition of human OVCAR8 cells at 10 uM after 48 hrs by sulforhodamine B assay
HT-29 = assay: Growth inhibition of human HT-29 cells at 10 uM after 48 hrs by sulforhodamine B assay
SNB-19 = assay: Growth inhibition of human SNB19 cells at 10 uM after 48 hrs by sulforhodamine B assay
CAKI-1 = assay: Growth inhibition of human CAKI-1 cells at 10 uM after 48 hrs by sulforhodamine B assay
NCI/ADR-RES = assay: Growth inhibition of human NCI-ADR-RES cells at 10 uM after 48 hrs by sulforhodamine B assay
MCF7 = assay: Growth inhibition of human MCF7 cells at 10 uM after 48 hrs by sulforhodamine B assay
SN12C = assay: Growth inhibition of human SN12C cells at 10 uM after 48 hrs by sulforhodamine B assay
COLO 205 = assay: Growth inhibition of human COLO205 cells at 10 uM after 48 hrs by sulforhodamine B assay
KM12 = assay: Growth inhibition of human KM12 cells at 10 uM after 48 hrs by sulforhodamine B assay
TK-10 = assay: Growth inhibition of human TK10 cells at 10 uM after 48 hrs by sulforhodamine B assay
M14 = assay: Growth inhibition of human M14 cells at 10 uM after 48 hrs by sulforhodamine B assay
HCT-15 = assay: Growth inhibition of human HCT15 cells at 10 uM after 48 hrs by sulforhodamine B assay
BT-549 = assay: Growth inhibition of human BT549 cells at 10 uM after 48 hrs by sulforhodamine B assay
HOP-92 = assay: Growth inhibition of human HOP92 cells at 10 uM after 48 hrs by sulforhodamine B assay
EKVX = assay: Growth inhibition of human EKVX cells at 10 uM after 48 hrs by sulforhodamine B assay
DU-145 = assay: Growth inhibition of human DU145 cells at 10 uM after 48 hrs by sulforhodamine B assay
SF-295 = assay: Growth inhibition of human SF295 cells at 10 uM after 48 hrs by sulforhodamine B assay
U-251 = assay: Growth inhibition of human U251 cells at 10 uM after 48 hrs by sulforhodamine B assay
SK-MEL-5 = assay: Growth inhibition of human SK-MEL-5 cells at 10 uM after 48 hrs by sulforhodamine B assay
T47D = assay: Growth inhibition of human T47D cells at 10 uM after 48 hrs by sulforhodamine B assay
SR = assay: Growth inhibition of human SR cells at 10 uM after 48 hrs by sulforhodamine B assay
NCI-H322M = assay: Growth inhibition of human NCI-H322M cells at 10 uM after 48 hrs by sulforhodamine B assay
Malme-3M = assay: Growth inhibition of human MALME-3M cells at 10 uM after 48 hrs by sulforhodamine B assay
LOX IMVI = assay: Growth inhibition of human LOXIMVI cells at 10 uM after 48 hrs by sulforhodamine B assay
A549 = assay: Growth inhibition of human A549/ATCC cells at 10 uM after 48 hrs by sulforhodamine B assay
HL-60(TB) = assay: Growth inhibition of human HL-60(TB) cells at 10 uM after 48 hrs by sulforhodamine B assay
RXF 393 = assay: Growth inhibition of human RXF393 cells at 10 uM after 48 hrs by sulforhodamine B assay
SK-MEL-2 = assay: Growth inhibition of human SK-MEL-2 cells at 10 uM after 48 hrs by sulforhodamine B assay
ACHN = assay: Growth inhibition of human ACHN cells at 10 uM after 48 hrs by sulforhodamine B assay
MDA-MB-435 = assay: Growth inhibition of human MDA-MB-435 cells at 10 uM after 48 hrs by sulforhodamine B assay
MOLT-4 = assay: Growth inhibition of human MOLT4 cells at 10 uM after 48 hrs by sulforhodamine B assay
NCI-H226 = assay: Growth inhibition of human NCI-H226 cells at 10 uM after 48 hrs by sulforhodamine B assay
HCC 2998 = assay: Growth inhibition of human HCC2998 cells at 10 uM after 48 hrs by sulforhodamine B assay
SF-268 = assay: Growth inhibition of human SF268 cells at 10 uM after 48 hrs by sulforhodamine B assay
MDA-MB-231 = assay: Growth inhibition of human MDA-MB-231 cells at 10 uM after 48 hrs by sulforhodamine B assay
786-0 = assay: Growth inhibition of human 786-0 cells at 10 uM after 48 hrs by sulforhodamine B assay
NCI-H460 = assay: Growth inhibition of human NCI-H460 cells at 10 uM after 48 hrs by sulforhodamine B assay
CCRF-CEM = assay: Growth inhibition of human CCRF-CEM cells at 10 uM after 48 hrs by sulforhodamine B assay
HOP-62 = assay: Growth inhibition of human HOP62 cells at 10 uM after 48 hrs by sulforhodamine B assay
HCT-116 = assay: Growth inhibition of human HCT116 cells at 10 uM after 48 hrs by sulforhodamine B assay
K562 = assay: Growth inhibition of human K562 cells at 10 uM after 48 hrs by sulforhodamine B assay
OVCAR-3 = assay: Growth inhibition of human OVCAR3 cells at 10 uM after 48 hrs by sulforhodamine B assay
OVCAR-5 = assay: Growth inhibition of human OVCAR5 cells at 10 uM after 48 hrs by sulforhodamine B assay
RPMI-8226 = assay: Growth inhibition of human RPMI8226 cells at 10 uM after 48 hrs by sulforhodamine B assay
SK-OV-3 = assay: Growth inhibition of human SKOV3 cells at 10 uM after 48 hrs by sulforhodamine B assay
A498 = assay: Growth inhibition of human A498 cells at 10 uM after 48 hrs by sulforhodamine B assay
NCI-H23 = assay: Growth inhibition of human NCI-H23 cells at 10 uM after 48 hrs by sulforhodamine B assay
UO-31 = assay: Growth inhibition of human UO31 cells at 10 uM after 48 hrs by sulforhodamine B assay
SK-MEL-28 = assay: Growth inhibition of human SK-MEL-28 cells at 10 uM after 48 hrs by sulforhodamine B assay
SNB-75 = assay: Growth inhibition of human SNB75 cells at 10 uM after 48 hrs by sulforhodamine B assay
OVCAR-4 = assay: Growth inhibition of human OVCAR4 cells at 10 uM after 48 hrs by sulforhodamine B assay
PC-3 = assay: Growth inhibition of human PC3 cells at 10 uM after 48 hrs by sulforhodamine B assay
Hs-578T = assay: Growth inhibition of human Hs 578T cells at 10 uM after 48 hrs by sulforhodamine B assay
UACC-62 = assay: Growth inhibition of human UACC62 cells at 10 uM after 48 hrs by sulforhodamine B assay

Measured: growth inhibition (GI)

O=C1/C(=C\c2cccn2C(=O)c2ccc(Cl)s2)c2ccccc2N1c1c(Cl)cccc1Cl
inactive: all assays above
